PubChem BioAssay (NCI)
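48-hour exposure; five concentrations; linearly interpolated endpoints. Abbreviation: GI50, concentration required for 50% inhibition of growth. TGI: concentration producing complete growth inhibition.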

Legend:
Experiment in all cases: DTP human tumour cell line panel, 48 h; in the data active = GI50 below about 0.43 µM; inactive = the rest
MOLT-4 leukemia = test system: MOLT-4 leukemia
ACHN renal = test system: ACHN renal
HOP-92 NSCLC = test system: HOP-92 NSCLC
786-0 renal = test system: 786-0 renal
K-562 leukemia = test system: K-562 leukemia
NCI/ADR-RES ovarian = test system: NCI/ADR-RES ovarian
MCF7 breast = test system: MCF7 breast
OVCAR-5 ovarian = test system: OVCAR-5 ovarian
CCRF-CEM leukemia = test system: CCRF-CEM leukemia
COLO 205 colon = test system: COLO 205 colon
HS 578T breast = test system: HS 578T breast
NCI-H226 lung = test system: NCI-H226 lung
A549 NSCLC = test system: A549 NSCLC
PC-3 prostate = test system: PC-3 prostate
M14 melanoma = test system: M14 melanoma
SK-MEL-28 melanoma = test system: SK-MEL-28 melanoma
NCI-H460 lung = test system: NCI-H460 lung
SF-295 CNS = test system: SF-295 CNS
IGROV1 ovarian = test system: IGROV1 ovarian
OVCAR-4 ovarian = test system: OVCAR-4 ovarian
SK-MEL-5 melanoma = test system: SK-MEL-5 melanoma
BT-549 breast = test system: BT-549 breast
LOX IMVI melanoma = test system: LOX IMVI melanoma
NCI-H23 lung = test system: NCI-H23 lung
MDA-N = test system: MDA-N
SNB-19 CNS = test system: SNB-19 CNS
HL-60(TB) leukemia = test system: HL-60(TB) leukemia
HCT-15 colon = test system: HCT-15 colon
UO-31 renal = test system: UO-31 renal
T-47D breast = test system: T-47D breast
UACC-62 melanoma = test system: UACC-62 melanoma
HOP-62 NSCLC = test system: HOP-62 NSCLC
CAKI-1 renal = test system: CAKI-1 renal
HCC-2998 colon = test system: HCC-2998 colon
TK-10 renal = test system: TK-10 renal
SNB-75 CNS = test system: SNB-75 CNS
SK-MEL-2 melanoma = test system: SK-MEL-2 melanoma
MALME-3M melanoma = test system: MALME-3M melanoma
SF-268 CNS = test system: SF-268 CNS
KM12 colon = test system: KM12 colon
RPMI-8226 leukemia = test system: RPMI-8226 leukemia
HT29 colon = test system: HT29 colon
EKVX NSCLC = test system: EKVX NSCLC
RXF 393 renal = test system: RXF 393 renal
OVCAR-3 ovarian = test system: OVCAR-3 ovarian
OVCAR-8 ovarian = test system: OVCAR-8 ovarian
SF-539 CNS = test system: SF-539 CNS
SK-OV-3 ovarian = test system: SK-OV-3 ovarian
MDA-MB-435 = test system: MDA-MB-435
DU-145 prostate = test system: DU-145 prostate
U251 CNS = test system: U251 CNS
HCT-116 colon = test system: HCT-116 colon
SR leukemia = test system: SR leukemia
SN12C renal = test system: SN12C renal
MDA-MB-231 breast = test system: MDA-MB-231 breast
UACC-257 melanoma = test system: UACC-257 melanoma

COc1cccc(/C=C/c2ccc(S(N)(=O)=O)cc2)c1
> 100 µM: TGI (MOLT-4 leukemia) | TGI (ACHN renal) | TGI (K-562 leukemia) | TGI (NCI/ADR-RES ovarian) | TGI (MCF7 breast) | TGI (OVCAR-5 ovarian) | TGI (CCRF-CEM leukemia) | TGI (A549 NSCLC) | TGI (PC-3 prostate) | TGI (M14 melanoma) | TGI (SK-MEL-28 melanoma) | TGI (NCI-H460 lung) | TGI (SF-295 CNS) | TGI (OVCAR-4 ovarian) | TGI (BT-549 breast) | TGI (LOX IMVI melanoma) | TGI (MDA-N) | TGI (SNB-19 CNS) | TGI (UO-31 renal) | TGI (T-47D breast) | TGI (HOP-62 NSCLC) | TGI (CAKI-1 renal) | TGI (MALME-3M melanoma) | TGI (SF-268 CNS) | TGI (KM12 colon) | TGI (HT29 colon) | TGI (EKVX NSCLC) | TGI (RXF 393 renal) | TGI (OVCAR-8 ovarian) | TGI (SK-OV-3 ovarian) | TGI (MDA-MB-435) | TGI (DU-145 prostate) | TGI (U251 CNS)
21.7 µM: TGI (HCT-116 colon)
42.8 µM: TGI (COLO 205 colon)
27.5 µM: TGI (OVCAR-3 ovarian)
98.2 µM: TGI (786-0 renal)
58.9 µM: TGI (UACC-62 melanoma)
77.7 µM: TGI (HL-60(TB) leukemia)
87.2 µM: TGI (HCC-2998 colon)
35.8 µM: TGI (HOP-92 NSCLC)
19.8 µM: TGI (RPMI-8226 leukemia)
89.6 µM: TGI (SN12C renal)
36.8 µM: TGI (SK-MEL-2 melanoma)
40.8 µM: TGI (SR leukemia)
90 µM: TGI (TK-10 renal)
77.6 µM: TGI (SF-539 CNS)
79.6 µM: TGI (MDA-MB-231 breast)
inactive: GI50 (MOLT-4 leukemia) 26.8 µM | GI50 (ACHN renal) 7.12 µM | GI50 (HOP-92 NSCLC) 3.29 µM | GI50 (K-562 leukemia) 20.6 µM | GI50 (CCRF-CEM leukemia) 13.6 µM | GI50 (HS 578T breast) 25.5 µM | GI50 (NCI-H226 lung) 2.91 µM | GI50 (A549 NSCLC) 11 µM | GI50 (IGROV1 ovarian) 2.5 µM | GI50 (OVCAR-4 ovarian) 25 µM | GI50 (BT-549 breast) 6.38 µM | GI50 (LOX IMVI melanoma) 30.7 µM | GI50 (NCI-H23 lung) 21 µM | GI50 (HL-60(TB) leukemia) 10.4 µM | GI50 (HCT-15 colon) 3.6 µM | GI50 (UACC-62 melanoma) 14 µM | GI50 (CAKI-1 renal) 14.7 µM | GI50 (SF-268 CNS) 17.1 µM | GI50 (KM12 colon) 12.2 µM | GI50 (RPMI-8226 leukemia) 3.81 µM | GI50 (HT29 colon) 0.554 µM | GI50 (OVCAR-8 ovarian) 31.6 µM | GI50 (SF-539 CNS) 16.8 µM | GI50 (MDA-MB-435) 17.4 µM | GI50 (U251 CNS) 5.54 µM | GI50 (SR leukemia) 5.21 µM
28.9 µM: TGI (IGROV1 ovarian)
80.1 µM: TGI (HS 578T breast)
60.9 µM: TGI (UACC-257 melanoma)
65.4 µM: TGI (HCT-15 colon)
91.2 µM: TGI (SNB-75 CNS)
57.5 µM: TGI (NCI-H23 lung)
17.5 µM: TGI (NCI-H226 lung)
66.8 µM: TGI (SK-MEL-5 melanoma)
